Measured values from US4212862A, “O,O-Diaryl-1-acyloxy-2,2,2-trichloroethylphosphonates and fungicides based thereon” (priority 1978, dated 1980).
Values joined by “and” are separate entries in the source; they are usually repeats but may differ in a detail not shown here. Equal entries are not always repeated.

What was measured:
[1] = system: stalk rust of wheat (Puccinia graminis); type: in vivo; details: in vivo
[2] = Acute peroral toxicity for warm-blooded animals (LD50, LD90); type: in vivo, white mice; details: mouse, in vivo, po, Table 2; peroral; read-out: LD50 for white mice
Protocol: (§1) Toxicity (LD50) was evaluated on males and females of white mice with peroral administration of the compounds. A portion of the test compound was mixed with the emulsifier Twin-20 and diluted with distilled water to the required working concentration. Administration of the preparation was effected by means of a metal probe and syringe directly into the stomach of test animals 2-3 hours after feeding. The tests were performed using several doses, 6 animals per each dose. Subsequent observation was effected for two weeks.

[3] = system: stalk rust (Puccinia graminis f. tritici); type: in vivo; details: in vivo
white mice = assay: Acute peroral toxicity for warm-blooded animals (LD50, LD90); type: in vivo; details: Table 2; peroral; 20160 min
Protocol: as §1

[4] = system: spores of Piricularia oryzae Cav.; type: cell-based; details: 24 hours

For `CCCCCCC(=O)OC(C(Cl)(Cl)Cl)P(=O)(Oc1cc(C)cc(C)c1)Oc1cc(C)cc(C)c1` (stereo not drawn) [XXIX], the “Percentage of injury lowered” value [1] was 85%, the LD50 at 336 h [2] was over 1000 mg/kg and the “Percentage of plants injured with rust, 1-st evaluation” value (“Percentage … 1-st evaluation” for short) [3] was 0.5%. For the same compound, the “Percentage of plants injured with rust, 2-nd evaluation” value (shortened to “Percentage … 2-nd evaluation”) [3] was 9.5%, the “Weight of 1,000 grains” value [3] was 14.8 g and the Yield [3] was 9.75 c/ha.

For `CCC(=O)OC(C(Cl)(Cl)Cl)P(=O)(Oc1cc(C)cc(C)c1)Oc1cc(C)cc(C)c1` (stereo not drawn) [XXVII], the “Percentage of injury lowered” value [1] was 92%, the LD50 at 336 h [2] was over 1000 mg/kg and the “Percentage … 1-st evaluation” value [3] was 0.5%. For the same compound, the “Percentage … 2-nd evaluation” value [3] was 10.5%, the “Weight of 1,000 grains” value [3] was 17.1 g and the Yield [3] was 11.50 c/ha.

For `O=C(OC(C(Cl)(Cl)Cl)P(=O)(Oc1ccccc1)Oc1ccccc1)c1ccccc1` (stereo not drawn) [VI], the “Percentage of injury lowered” value [1] was 99% and 98%, the LD50 at 336 h [2] was over 1000 mg/kg and the “Percentage … 1-st evaluation” value [3] was 0.5%. The “Percentage … 2-nd evaluation” value [3] was 8.5%, the “Weight of 1,000 grains” value [3] was 16.4 g and the Yield [3] was 11.30 c/ha.

With `CCCCC(CC)C(=O)OC(C(Cl)(Cl)Cl)P(=O)(Oc1ccc(C)cc1)Oc1ccc(C)cc1` (stereo not drawn) [XXII] the “Percentage of injury lowered” value [1] was 94% and 48%, the LD50 at 336 h [2] was over 1000 mg/kg and the “Percentage … 1-st evaluation” value [3] was 0.5%. The “Percentage … 2-nd evaluation” value [3] was 9.0%, the “Weight of 1,000 grains” value [3] was 15.8 g and the Yield [3] was 11.00 c/ha.

In the case of `CCC(=O)OC(C(Cl)(Cl)Cl)P(=O)(Oc1ccccc1)Oc1ccccc1` (stereo not drawn) [II], the “Percentage of injury lowered” value [1] is reported as 78% and 63%, the LD50 at 336 h [2] is reported as over 1000 mg/kg and the “Percentage … 1-st evaluation” value [3] is reported as 0.5%. The “Percentage … 2-nd evaluation” value [3] was 11.0%, the “Weight of 1,000 grains” value [3] was 16.5 g and the Yield [3] was 11.50 c/ha.

For `CCCCCCC(=O)OC(C(Cl)(Cl)Cl)P(=O)(Oc1ccc(-c2ccccc2)cc1)Oc1ccc(-c2ccccc2)cc1` (stereo not drawn) [XLIX], the “Percentage of injury lowered” value [1] was 49% and the “LD50 for white mice” value (white mice) was > 1,000 mg/kg.

In the case of `Cc1ccc(OP(=O)(Oc2ccc(C)cc2)C(OC(=O)c2ccccc2)C(Cl)(Cl)Cl)cc1` (stereo not drawn) [XXIII], the “Percentage of injury lowered” value [1] is reported as 89% and 79%, the LD50 at 336 h [2] is reported as over 1000 mg/kg and the “Percentage … 1-st evaluation” value [3] is reported as 0.5%. The “Percentage … 2-nd evaluation” value [3] was 8.0%, the “Weight of 1,000 grains” value [3] was 18.1 g and the Yield [3] was 13.30 c/ha.

For `CCCC(=O)OC(C(Cl)(Cl)Cl)P(=O)(Oc1ccccc1)Oc1ccccc1` (stereo not drawn) [III], the “Percentage of injury lowered” value [1] was 68% and 51%, the LD50 at 336 h [2] was over 500 mg/kg and the “Percentage … 1-st evaluation” value [3] was 0.5%. For the same compound, the “Percentage … 2-nd evaluation” value [3] was 7.0%, the “Weight of 1,000 grains” value [3] was 18.4 g and the Yield [3] was 14.00 c/ha.

For `CC(=O)OC(C(Cl)(Cl)Cl)P(=O)(Oc1ccc(C)cc1)Oc1ccc(C)cc1` (stereo not drawn) [XVIII], the “Percentage of injury lowered” value [1] was 91% and 63%, the LD50 at 336 h [2] was over 500 mg/kg and the “Percentage … 1-st evaluation” value [3] was 0.5%. The “Percentage … 2-nd evaluation” value [3] was 6.5%, the “Weight of 1,000 grains” value [3] was 21.4 g and the Yield [3] was 17.20 c/ha.

For `CCOP(=O)(OCC)SCc1ccccc1` [kitacin, O,O-diethyl-S-benzylthiophosphate, reference compound], the “Concentration causing 50% death of spores” value [4] was 28.6 mg/L.

For `CC(=O)OC(C(Cl)(Cl)Cl)P(=O)(Oc1ccccc1C)Oc1ccccc1C` (stereo not drawn) [VII], the “Percentage of injury lowered” value [1] was 83% and 77%, the LD50 at 336 h [2] was over 1000 mg/kg and the “Percentage … 1-st evaluation” value [3] was 0.5%. The “Percentage … 2-nd evaluation” value [3] was 9.0%, the “Weight of 1,000 grains” value [3] was 15.1 g and the Yield [3] was 10.10 c/ha.
